# Source: patent publication US20090068290A1, “BIFEPRUNOX DOSES FOR TREATING SCHIZOPHRENIA” (priority 2006, published 2009)
# Assays:
# [1] = tested on: patients with chronic schizophrenia; test: Time to deterioration, Clinical Study Four (6-month, placebo-controlled); format: in vivo, human; conditions: for proportion of patients who deteriorated / time to deterioration of schizophrenia versus PBO (in words): 6 months; for proportion of patients who deteriorated / estimated hazard ratio relative to PBO, time to deterioration (Cox proportional hazards model) / Hazard Ratio (Cox), time to deterioration / % Deteriorated / No. of Pts Deteriorated: FAS; for time to deterioration of schizophrenia versus PBO (in words): BX 20 and 30 mg/day
# Method: (§1) METHODOLOGY: This study was a multinational, multicenter, randomized, double-blind, parallel-group, placebo-controlled, fixed-dose study. The study consisted of a 3- to 6-day antipsychotic-free run-in period, after which patients were randomised to 6 months of double-blind treatment with fixed doses of bifeprunox (20 mg/day (BX20) or 30 mg/day (BX30)) or placebo (PBO). Patients allocated to the BX groups were up-titrated from 0.25 mg/day over 7 days (BX20) or 8 days (BX30), and then continued on these doses for the remainder of the study. […] At predetermined time points, blood samples were obtained for drug concentration analysis of BX and its major metabolites (3′- and 4′-sulfate conjugates of BX), and pharmaco-economic assessments were performed.
# Investigational Product, Dose and Mode of Administration, Batch Number: Bifeprunox—up-titration over 7 (20 mg) or 8 days (30 mg) to 20 or 30 mg once daily; encapsulated tablets, orally.
# Reference Thera Dose and Mode of Administration: Placebo—encapsulated tablets, orally.
# [2] = tested on: patients with chronic schizophrenia; test: PANSS total score, Clinical Study Four; format: in vivo, human; conditions: FAS, ANCOVA; for Adjusted Mean Change from Baseline in PANSS Total Score, Difference to PBO Mean: Week 6 (day 42)
# Method: as §1
smiles,measurement,setting,value
"O=c1[nH]c2cccc(N3CCN(Cc4cccc(-c5ccccc5)c4)CC3)c2o1 [Bifeprunox, 7-[4-([1,1′-biphenyl]-3-ylmethyl)-1-piperazinyl]-2(3H)-benzoxazolone]",proportion of patients who deteriorated,[1]; BX20 (20 mg/day),41%
same,"estimated hazard ratio relative to PBO, time to deterioration (Cox proportional hazards model)",[1]; BX20 (20 mg/day),0.66
same,"Hazard Ratio (Cox), time to deterioration",[1]; BX20 (bifeprunox 20 mg) relative to PBO,0.656
same,% Deteriorated,[1]; BX20 (bifeprunox 20 mg),40.5%
same,No. of Pts Deteriorated,"[1]; BX20 (bifeprunox 20 mg), N 158",64
same,time to deterioration of schizophrenia versus PBO (in words),[1],prevented deterioration of schizophrenia statistically significantly better than placebo
same,time to deterioration of schizophrenia versus PBO (in words),[1]; listed as BX,statistically significantly longer time to deterioration
same,proportion of patients who deteriorated,[1]; BX30 (30 mg/day),38%
same,"estimated hazard ratio relative to PBO, time to deterioration (Cox proportional hazards model)",[1]; BX30 (30 mg/day),0.65
same,"Hazard Ratio (Cox), time to deterioration",[1]; BX30 (bifeprunox 30 mg) relative to PBO,0.653
same,% Deteriorated,[1]; BX30 (bifeprunox 30 mg),38.4%
same,No. of Pts Deteriorated,"[1]; BX30 (bifeprunox 30 mg), N 172",66
same,"Adjusted Mean Change from Baseline in PANSS Total Score, Difference to PBO Mean","[2]; BX20 (bifeprunox 20 mg/day), LOCF",−5.07
same,"Adjusted Mean Change from Baseline in PANSS Total Score, Difference to PBO Mean","[2]; BX30 (bifeprunox 30 mg/day), LOCF",−3.71
same,"Adjusted Mean Change from Baseline in PANSS Total Score, Least Squares Estimates Mean","[2]; Day 7, LOCF, listed as BX20",−1.89
same,"Change from Baseline in PANSS Total Score, Difference to PBO Mean","[2]; Day 7, LOCF, listed as BX20",−1.30
same,"Adjusted Mean Change from Baseline in PANSS Total Score, Least Squares Estimates Mean","[2]; Day 7, LOCF, listed as BX30",−0.73
same,"Change from Baseline in PANSS Total Score, Difference to PBO Mean","[2]; Day 7, LOCF, listed as BX30",−0.14
same,"Adjusted Mean Change from Baseline in PANSS Total Score, Least Squares Estimates Mean","[2]; Day 7, OC, listed as BX20",−1.89
same,"Change from Baseline in PANSS Total Score, Difference to PBO Mean","[2]; Day 7, OC, listed as BX20",−1.30
same,"Adjusted Mean Change from Baseline in PANSS Total Score, Least Squares Estimates Mean","[2]; Day 7, OC, listed as BX30",−0.73
same,"Change from Baseline in PANSS Total Score, Difference to PBO Mean","[2]; Day 7, OC, listed as BX30",−0.14
same,"Adjusted Mean Change from Baseline in PANSS Total Score, Least Squares Estimates Mean","[2]; Day 7, POCF, listed as BX20",−2.81
same,"Change from Baseline in PANSS Total Score, Difference to PBO Mean","[2]; Day 7, POCF, listed as BX20",−1.33
same,"Adjusted Mean Change from Baseline in PANSS Total Score, Least Squares Estimates Mean","[2]; Day 7, POCF, listed as BX30",−2.23
same,"Change from Baseline in PANSS Total Score, Difference to PBO Mean","[2]; Day 7, POCF, listed as BX30",−0.76
same,"Adjusted Mean Change from Baseline in PANSS Total Score, Least Squares Estimates Mean","[2]; Day 14, LOCF, listed as BX20",−3.03
same,"Change from Baseline in PANSS Total Score, Difference to PBO Mean","[2]; Day 14, LOCF, listed as BX20",−2.38
same,"Adjusted Mean Change from Baseline in PANSS Total Score, Least Squares Estimates Mean","[2]; Day 14, LOCF, listed as BX30",−1.45
same,"Change from Baseline in PANSS Total Score, Difference to PBO Mean","[2]; Day 14, LOCF, listed as BX30",−0.79
same,"Adjusted Mean Change from Baseline in PANSS Total Score, Least Squares Estimates Mean","[2]; Day 14, OC, listed as BX20",−4.77
same,"Change from Baseline in PANSS Total Score, Difference to PBO Mean","[2]; Day 14, OC, listed as BX20",−2.39
same,"Adjusted Mean Change from Baseline in PANSS Total Score, Least Squares Estimates Mean","[2]; Day 14, OC, listed as BX30",−4.43
same,"Change from Baseline in PANSS Total Score, Difference to PBO Mean","[2]; Day 14, OC, listed as BX30",−2.05
same,"Adjusted Mean Change from Baseline in PANSS Total Score, Least Squares Estimates Mean","[2]; Day 14, POCF, listed as BX20",−5.48
same,"Change from Baseline in PANSS Total Score, Difference to PBO Mean","[2]; Day 14, POCF, listed as BX20",−2.61
same,"Adjusted Mean Change from Baseline in PANSS Total Score, Least Squares Estimates Mean","[2]; Day 14, POCF, listed as BX30",−4.65
same,"Change from Baseline in PANSS Total Score, Difference to PBO Mean","[2]; Day 14, POCF, listed as BX30",−1.78
same,"Adjusted Mean Change from Baseline in PANSS Total Score, Least Squares Estimates Mean","[2]; Day 28, LOCF, listed as BX20",−.327
same,"Change from Baseline in PANSS Total Score, Difference to PBO Mean","[2]; Day 28, LOCF, listed as BX20",−3.34
same,"Adjusted Mean Change from Baseline in PANSS Total Score, Least Squares Estimates Mean","[2]; Day 28, LOCF, listed as BX30",−2.13
same,"Change from Baseline in PANSS Total Score, Difference to PBO Mean","[2]; Day 28, LOCF, listed as BX30",−2.20
same,"Adjusted Mean Change from Baseline in PANSS Total Score, Least Squares Estimates Mean","[2]; Day 28, OC, listed as BX20",−7.61
same,"Change from Baseline in PANSS Total Score, Difference to PBO Mean","[2]; Day 28, OC, listed as BX20",−4.09
same,"Adjusted Mean Change from Baseline in PANSS Total Score, Least Squares Estimates Mean","[2]; Day 28, OC, listed as BX30",−7.14
same,"Change from Baseline in PANSS Total Score, Difference to PBO Mean","[2]; Day 28, OC, listed as BX30",−3.63
same,"Adjusted Mean Change from Baseline in PANSS Total Score, Least Squares Estimates Mean","[2]; Day 28, POCF, listed as BX20",−7.74
same,"Change from Baseline in PANSS Total Score, Difference to PBO Mean","[2]; Day 28, POCF, listed as BX20",−3.63
same,"Adjusted Mean Change from Baseline in PANSS Total Score, Least Squares Estimates Mean","[2]; Day 28, POCF, listed as BX30",−6.85
same,"Change from Baseline in PANSS Total Score, Difference to PBO Mean","[2]; Day 28, POCF, listed as BX30",−2.74
same,"Adjusted Mean Change from Baseline in PANSS Total Score, Least Squares Estimates Mean","[2]; Day 42, LOCF, listed as BX20",−4.01
same,"Change from Baseline in PANSS Total Score, Difference to PBO Mean","[2]; Day 42, LOCF, listed as BX20",−5.07
same,"Adjusted Mean Change from Baseline in PANSS Total Score, Least Squares Estimates Mean","[2]; Day 42, LOCF, listed as BX30",−2.65
same,"Change from Baseline in PANSS Total Score, Difference to PBO Mean","[2]; Day 42, LOCF, listed as BX30",−3.71
same,"Adjusted Mean Change from Baseline in PANSS Total Score, Least Squares Estimates Mean","[2]; Day 42, OC, listed as BX20",−12.40
same,"Change from Baseline in PANSS Total Score, Difference to PBO Mean","[2]; Day 42, OC, listed as BX20",−6.14
same,"Adjusted Mean Change from Baseline in PANSS Total Score, Least Squares Estimates Mean","[2]; Day 42, OC, listed as BX30",−11.23
same,"Change from Baseline in PANSS Total Score, Difference to PBO Mean","[2]; Day 42, OC, listed as BX30",−4.97
same,"Adjusted Mean Change from Baseline in PANSS Total Score, Least Squares Estimates Mean","[2]; Day 42, POCF, listed as BX20",−9.40
same,"Change from Baseline in PANSS Total Score, Difference to PBO Mean","[2]; Day 42, POCF, listed as BX20",−4.32
same,"Adjusted Mean Change from Baseline in PANSS Total Score, Least Squares Estimates Mean","[2]; Day 42, POCF, listed as BX30",−8.12
same,"Change from Baseline in PANSS Total Score, Difference to PBO Mean","[2]; Day 42, POCF, listed as BX30",−3.05
same,"Adjusted Mean Change from Baseline in PANSS Total Score, Least Squares Estimates Mean","[2]; Day 63, LOCF, listed as BX20",−3.22
same,"Change from Baseline in PANSS Total Score, Difference to PBO Mean","[2]; Day 63, LOCF, listed as BX20",−5.47
same,"Adjusted Mean Change from Baseline in PANSS Total Score, Least Squares Estimates Mean","[2]; Day 63, LOCF, listed as BX30",−2.44
same,"Change from Baseline in PANSS Total Score, Difference to PBO Mean","[2]; Day 63, LOCF, listed as BX30",−4.68
same,"Adjusted Mean Change from Baseline in PANSS Total Score, Least Squares Estimates Mean","[2]; Day 63, OC, listed as BX20",−12.85
